This passage reports melting point results from patent publication US8802678B2, “Carbonylated (aza) cyclohexanes as dopamine D3 receptor ligands” (Bioprojet, priority 2006, dated 2014).

One may read the melting point as the temperature of the solid-liquid transition. Molecule `CC(=O)CN1CCC(CCN2CCN(c3ccc(F)c(C#N)c3)CC2)CC1` [Example 659, 2-Fluoro-5-(4-{2-[1-(2-oxopropyl)piperidin-4-yl]ethyl}piperazin-1-yl)benzonitrile] had a melting point of 102 °C.

The molecule `CCc1ccc(N2CCN(CC[C@H]3CC[C@H](NC(=O)CC#N)CC3)CC2)c(CC)c1` [Example 255, 2-Cyano-N-(4-{2-[4-(2,4-diethylphenyl)piperazin-1-yl]ethyl}cyclohexyl)acetamide] registered a melting point of 183 °C.

`CCOCC(=O)N[C@H]1CC[C@H](CCN2CCN(c3cccc(C(F)(F)F)c3F)CC2)CC1` [Example 478, 2-Ethoxy-N-(4-{2-[4-(2-fluoro-3-trifluoromethylphenyl)piperazin-1-yl]ethyl}cyclohexyl)acetamide] displayed a melting point of 125 °C.

Turning to `COCCCC(=O)N[C@H]1CC[C@H](CCN2CC=C(c3ccc(F)cc3)CC2)CC1`, the melting point amounted to 201 °C.

As for `COCC(=O)N[C@H]1CC[C@H](CCN2CC=C(c3cccc(C#N)c3)CC2)CC1`, the melting point amounted to 117 °C.

Turning to `O=C(CC(F)(F)F)N[C@H]1CC[C@H](CCN2CCN(c3cc(C(F)(F)F)ccc3F)CC2)CC1` [Example 670, 3,3,3-Trifluoro-N-(4-{2-[4-(2-fluoro-5-trifluoromethylphenyl)piperazin-1-yl]ethyl}cyclohexyl) propanamide], the melting point was 177 °C.

Regarding `O=C(COc1ccc(F)cc1)N[C@H]1CC[C@H](CCN2CCN(c3cccc(C(F)(F)F)c3)CC2)CC1` [Example 224, 2-(4-Fluorophenoxy)-N-(4-{2-[4-(3-trifluoromethylphenyl)-piperazin-1-yl]ethyl}cyclohexyl)-acetamide], the melting point came out at 119 °C.

In turn, `N#CCCCC(=O)N[C@H]1CC[C@H](CCN2CCN(c3cc(F)c(F)c(F)c3F)CC2)CC1` [Example 98, 4-Cyano-N-(4-{2-[4-(2,3,4,5-tetrafluorophenyl)piperazin-1-yl]ethyl}cyclohexyl)butyramide] yielded a melting point of 180 °C.

`N#CCCC(=O)N[C@H]1CC[C@H](CCN2CCN(c3ccc(C(F)(F)F)cc3)CC2)CC1` [Example 643, 3-Cyano-N-(4-{2-[4-(4-trifluoromethylphenyl)piperazin-1-yl]ethyl}cyclohexyl) propanamide] displayed a melting point of 207 °C.

For `CC(=O)CN1CCC(CCN2CCN(c3ccc(F)cc3)CC2)CC1.Cl.Cl`, the melting point was 270 °C.

Regarding `N#CCC(=O)N[C@H]1CC[C@H](CCN2CC=C(c3ccc(C(F)(F)F)cc3)CC2)CC1`, the melting point stood at 217 °C.

With `CCC(O)c1cccc(N2CCN(CCC3CCN(CC(C)=O)CC3)CC2)c1` (centres unmarked) [Example 607, 1-[4-(2-{4-[3-(1-Hydroxypropyl)phenyl]piperazin-1-yl}ethyl)piperidin-1-yl]propan-2-one], the melting point was found to be 83 °C.

The molecule `CCc1ccccc1N1CCN(CC[C@H]2CC[C@H](NC(=O)CC(F)(F)F)CC2)CC1` [Example 422, N-(4-{2-[4-(2-Ethylphenyl)piperazin-1-yl]ethyl}cyclohexyl)-3,3,3-trifluoropropanamide] registered a melting point of 135 °C.

`CCc1ccc(N2CCN(CC[C@H]3CC[C@H](NC(=O)CC#N)CC3)CC2)cc1` [Example 285, 2-Cyano-N-(4-{2-[4-(4-ethylphenyl)piperazin-1-yl]ethyl}cyclohexyl)acetamide] showed a melting point of 210 °C.

Consider `N#CCCC(=O)N1CCC(CCN2CCN(c3cccc(Cl)c3Cl)CC2)CC1` [Example 733, 4-(4-{2-[4-(2,3-Dichlorophenyl)piperazin-1-yl]ethyl}piperidin-1-yl)-4-oxobutanonitrile], for which the melting point was found to be 94 °C.

Molecule `CON(C)C(=O)CN1CCC(CCN2CCN(c3cccc(C)c3C)CC2)CC1` [Example 772, 2-(4-{2-[4-(2,3-dimethylphenyl)piperazin-1-yl]ethyl}piperidin-1-yl)-N-methoxy-N-methylacetamide] displayed a melting point of 66 °C.

Consider `Cl.Cl.N#Cc1cccc(N2CCN(CC[C@H]3CC[C@H](NC(=O)[C@@H]4CCCN4)CC3)CC2)c1` (stereo in doubt), for which the melting point is 314 °C.

`N#CCC(=O)N[C@H]1CC[C@H](CCN2CCN(c3cccc4c3CCCC4)CC2)CC1` [Example 116, 2-Cyano-N-(4-{2-[4-(5,6,7,8-tetrahydronaphthalen-1-yl)piperazin-1-yl]ethyl}cyclohexyl)acetamide] showed a melting point of 175 °C.

Consider `N#CCC(=O)N[C@H]1CC[C@H](CCN2CCC(c3cccc(C(F)(F)F)c3)CC2)CC1` [Example 218, 2-Cyano-N-(4-{2-[4-(3-trifluoromethylphenyl)piperidin-1-yl]ethyl}cyclohexyl)acetamide], for which the melting point stood at 129 °C.

In turn, `CCCc1cccc(N2CCN(CC[C@H]3CC[C@H](NC(=O)CC#N)CC3)CC2)c1` [Example 271, 2-Cyano-N-(4-{2-[4-(3-propylphenyl)piperazin-1-yl]ethyl}cyclohexyl)acetamide] yielded a melting point of 132 °C.

For the molecule `CC(=O)CN1CCC(CCN2CCN(c3ccccc3F)CC2)CC1.Cl.Cl`, the melting point stood at 250 °C.

Turning to `N#CCCCC(=O)N[C@H]1CC[C@@H](CCN2CCN(c3cccc(C(F)(F)F)c3F)CC2)CC1` [Example 366, 4-Cyano-N-(4-{2-[4-(2-fluoro-3-trifluoromethylphenyl)piperazin-1-yl]ethyl}cyclohexyl)butanamide], the melting point worked out at 95 °C.

With `COc1ccc(N2CCN(CC[C@H]3CC[C@H](NC(=O)CCCC#N)CC3)CC2)cc1` [Example 582, 4-Cyano-N-(4-{2-[4-(4-methoxyphenyl)piperazin-1-yl]ethyl}cyclohexyl)butanamide], the melting point worked out at 200 °C.

`COc1ccccc1N1CCN(CC[C@H]2CC[C@H](NC(=O)C3CC=CC3)CC2)CC1` [Example 372, Cyclopent-3-enecarboxylic acid (4-{2-[4-(2-methoxyphenyl)piperazin-1-yl]ethyl}cyclohexyl) amide] had a melting point of 202 °C.

Consider `CC(=O)CN1CCC(CCN2CCN(c3cccc(CO)c3)CC2)CC1` [Example 640, 1-(4-{2-[4-(3-Hydroxymethylphenyl)piperazin-1-yl]ethyl}piperidin-1-yl)propan-2-one], for which the melting point turned out to be 84 °C.

Consider `N#CCCCC(=O)N[C@H]1CC[C@H](CCN2CCN(c3cc(Cl)ccc3F)CC2)CC1` [Example 414, N-(4-{2-[4-(5-Chloro-2-fluorophenyl)piperazin-1-yl]ethyl}cyclohexyl)-4-cyanobutanamide], for which the melting point worked out at 165 °C.

Regarding `N#CCCCC(=O)N[C@H]1CC[C@H](CCN2CCN(c3cccc(Cl)c3F)CC2)CC1` [Example 205, N-(4-{2-[4-(3-Chloro-2-fluorophenyl)piperazin-1-yl]ethyl}cyclohexyl)-4-cyanobutanamide], the melting point was found to be 186 °C.

Molecule `CCOCC(=O)N[C@H]1CC[C@H](CCN2CCN(c3ccccc3C)CC2)CC1` [Example 557] showed a melting point of 101 °C.

For `N#CCC(=O)N[C@H]1CC[C@H](CCN2CCN(c3ccc(F)cc3F)CC2)CC1` [Example 162, 2-Cyano-N-(4-{2-[4-(2,4-difluorophenyl)piperazin-1-yl]ethyl}cyclohexyl)acetamide], the melting point was 188 °C.

Regarding `Cc1ccc(N2CCN(CC[C@H]3CC[C@H](NC(=O)CC#N)CC3)CC2)cc1` [Example 242, 2-Cyano-N-{4-[2-(4-p-tolylpiperazin-1-yl)ethyl]cyclohexyl}acetamide], the melting point is 237 °C.

The molecule `N#CCC(=O)N[C@H]1CC[C@H](CCN2CCN(c3ccccc3F)CC2)CC1` [Example 79, 2-Cyano-N-(4-{2-[4-(2-fluorophenyl)piperazin-1-yl]ethyl}cyclohexyl)acetamide] gave a melting point of 179 to 180 °C.

Take `CCC(O)c1cccc(N2CCN(CC[C@H]3CC[C@H](NC(=O)CCCC#N)CC3)CC2)c1` (some centres unmarked) [Example 540, 4-cyano-N-[4-(2-{4-[3-(1-hydroxypropyl)phenyl]piperazin-1-yl}ethyl)cyclohexyl]butanamide]: the melting point stood at 151 °C.

`N#CCCCC(=O)N[C@H]1CC[C@H](CCN2CCN(c3ccccc3F)CC2)CC1` [Example 204, 4-Cyano-N-(4-{2-[4-(2-fluorophenyl)piperazin-1-yl]ethyl}cyclohexyl)butanamide] returned a melting point of 170 °C.

`N#CCC(=O)N[C@H]1CC[C@H](CCN2CCN(c3cccc(F)c3)CC2)CC1` [Example 133] showed a melting point of 202 °C.

`N#CCC(=O)N[C@H]1CC[C@H](CCN2CCN(c3cc(Cl)cc(Cl)c3)CC2)CC1` [Example 151, 2-Cyano-N-(4-{2-[4-(3,5-dichlorophenyl)piperazin-1-yl]ethyl}cyclohexyl)acetamide]: the melting point worked out at 200 °C.

In turn, `COCCCC(=O)N[C@H]1CC[C@H](CCN2CCN(c3cc(C)cc(Cl)c3)CC2)CC1` [Example 578, N-(4-{2-[4-(3-Chloro-5-methylphenyl)piperazin-1-yl]ethyl}cyclohexyl)-4-methoxybutanamide] came in with a melting point of 167 °C.

Regarding `CC(C)OCC(=O)N[C@H]1CC[C@H](CCN2CCN(c3ccccc3F)CC2)CC1` [Example 97, N-(4-{2-[4-(2-Fluorophenyl)-piperazin-1-yl]ethyl}cyclohexyl)-2-isopropoxyacetamide], the melting point stood at 96 °C.

As for `Cl.N#CCCC(=O)N1CCC(CCN2CCN(c3cc(Cl)cc(C(F)(F)F)c3)CC2)CC1`, the melting point came to 128 °C.

`Cc1c(Cl)cccc1N1CCN(CC[C@H]2CC[C@H](NC(=O)CC#N)CC2)CC1` [Example 136, N-(4-{2-[4-(3-Chloro-2-methylphenyl)piperazin-1-yl]ethyl}cyclohexyl)-2-cyanoacetamide] showed a melting point of 179 to 182 °C.

`N#CCCCC(=O)N[C@H]1CC[C@H](CCN2CCN(c3cccc(F)c3F)CC2)CC1` [Example 445, 4-Cyano-N-(4-{2-[4-(2,3-difluorophenyl)piperazin-1-yl]ethyl}cyclohexyl)butanamide] registered a melting point of 197 °C.

For the molecule `O=C(N[C@H]1CC[C@H](CCN2CCN(c3ccc(F)cc3F)CC2)CC1)C1=COCC1` [Example 527, 4,5-Dihydrofuran-3-carboxylic acid (4-{2-[4-(2,4-difluorophenyl)piperazin-1-yl]ethyl}cyclohexyl) amide], the melting point was 192 °C.
